# Data reported in patent US20190263796A1, “LIM KINASE INHIBITORS, PHARMACEUTICAL COMPOSITION AND METHOD OF USE IN LIMK-MEDIATED DISEASES” (CELLIPSE, priority 2016, published 2019).
# Where two headings read alike, the source gives them in different places.
# Experiments:
# [1] = tested on: P-MEK/Total MEK; experiment: Western blot MEK1 phosphorylation, MOLM-14; format: cell-based; details: read-out: IC50 P-MEK/Total MEK; MOLM-14 cells; 2 h
# Protocol: (§1) MOLM-14 cell line was originally purchased from the American Type Culture Collection (ATCC). MOLM-14 cells are cultured in MEM alpha 10% (v/v) FBS supplemented with 100 U/mL^−1 penicillin, 0.1 mg·mL^−1 streptomycin (PAN Biotech P06-07100). Cells were maintained at 37° C. with 5% CO2.
# (§2) In a 6 wells plate (Falcon 353046), 2·10^6 cells in 1.5 mL medium are treated for 2 h with compounds. Cells are then collected and cell lysis is performed at 4° C. using RIPA buffer supplemented with protease inhibitors cocktail (Sigma-Aldrich P8340) and phosphatase inhibitors cocktail (Sigma-Aldrich P5726). Following centrifugation 30 min 15000 g 4° C., supernatants are mixed with Laemmli buffer and denaturation is performed by heating 5 min 95° C. 10 μL of samples are subjected to electrophoresis on 15% SDS-PAGE. After electro-transfer (Mini Transblot, Bio-Rad), the PVDF membrane (Merck-Millipore Immobilon P IPVH00010) is blocked with Tris Buffered Saline, pH 7.4 (TBS) with 0.1% Tween 20 and 5% BSA for 1 h at room temperature under agitation. The membrane was rinsed 3 times 10 min at room temperature under agitation with TBS, 0.1% Tween-20 (TBST) and then 1 h at room temperature with anti-phospho-Ser218/222-MEK1 (Merck-Millipore 07-461, 1/1000 dilution) antibody or anti-MEK1 (Merck-Millipore 07-641, 1/1000 dilution) diluted in TBS, 0.1% Tween 20 and 1% BSA. The membrane is then rinsed 3 times 10 min RT under agitation in TBST and incubated for 1 h with anti-rabbit secondary antibody, horseradish peroxidase conjugated (Jackson Immunoresearch #711-036-152) under agitation at room temperature. After three washes 10 min at room temperature in TBST, the detection of total or phosphorylated cofilin was performed using chemiluminescence kit ECL™ Plus (GE Healthcare RPN2132). For each concentration of compound, ratio between phosphorylated cofilin and total cofilin is determined. This ratio is then expressed as percentage of control ratio (i.e., ratio from DMSO treated cells). IC50 P-MEK/Total MEK is then determined.
# (§3) Selectivity ratios are calculated by dividing the IC50 P-MEK/Total MEK value (μM) by the IC50 Phospho-Ser3-Cofilin/Total Cofilin value (μM).
# [2] = tested on: Phospho-Ser3-Cofilin/Total Cofilin; experiment: Western blot cofilin phosphorylation, HL-60; format: cell-based; details: Homo sapiens; HL-60 cells; 2 h
# Protocol: (§4) HL-60 cell line was originally purchased from the Leibniz-Institut Deutsche Sammlung von Mikroorganismen und Zellkulturen GmbH (DSMZ). HL-60 cells are cultured in RPMI 1640 10% (v/v) FBS supplemented with 100 U/mL^−1 penicillin, 0.1 mg·mL^−1 streptomycin (PAN Biotech P06-07100). Cells were maintained at 37° C. with 5% CO2.
# as §2, with “1 h RT under agitation.” for “1 h at room temperature under agitation.”, “temperature with anti-phospho-Ser3-cofilin (Cell Signaling Technology #3313, 1/1000 dilution)” for “temperature with anti-phospho-Ser218/222-MEK1 (Merck-Millipore 07-461, 1/1000 dilution)”, “antibody or anti-cofilin (Cell Signaling Technology #3312, 1/1000 dilution)” for “antibody or anti-MEK1 (Merck-Millipore 07-641, 1/1000 dilution)”, “10 min at room temperature under agitation” for “10 min RT under agitation”, “cells). IC50 Phospho-Ser3-Cofilin/Total Cofilin is then” for “cells). IC50 P-MEK/Total MEK is then”
# [3] = tested on: P-MEK/Total MEK; experiment: Western blot MEK1 phosphorylation, MOLM-13; format: cell-based; details: read-out: IC50 P-MEK/Total MEK; MOLM-13 cells; 2 h
# Protocol: as §4, with “MOLM-13” for “HL-60”, “20%” for “10%”
# as §2, §3
# [4] = tested on: Phospho-Ser3-Cofilin/Total Cofilin; experiment: Western blot cofilin phosphorylation, Kasumi-1; format: cell-based; details: Homo sapiens; Kasumi-1 cells; 2 h
# Protocol: (§5) Kasumi-1 cell line was originally purchased from the American Type Culture Collection (ATCC). Kasumi-1 cells are cultured in RPMI 1640 20% (v/v) FBS supplemented with 100 U/mL^−1 penicillin, 0.1 mg·mL^−1 streptomycin (PAN Biotech P06-07100). Cells were maintained at 37° C. with 5% CO2.
# In a 6 wells plate (Falcon 353046), 2·10^6 cells in 1.5 mL medium are treated for 2 h with compounds. Cells are then collected and cell lysis is performed at 4° C. using RIPA buffer supplemented with protease inhibitors cocktail (Sigma-Aldrich P8340) and phosphatase inhibitors cocktail (Sigma-Aldrich P5726). Following centrifugation 30 min 15000 g 4° C., supernatants are mixed with Laemmli buffer and denaturation is performed by heating 5 min 95° C. 10 μL of samples are subjected to electrophoresis on 15% SDS-PAGE. After electro-transfer (Mini Transblot, Bio-Rad), the PVDF membrane (Merck-Millipore Immobilon P IPVH00010) is blocked with Tris Buffered Saline, pH 7.4 (TBS) with 0.1% Tween 20 and 5% BSA for 1 h RT under agitation. […] For each concentration of compound, ratio between phosphorylated cofilin and total cofilin is determined. This ratio is then expressed as percentage of control ratio (i.e., ratio from DMSO treated cells). IC50 Phospho-Ser3-Cofilin/Total Cofilin is then determined.
# [5] = tested on: P-MEK/Total MEK; experiment: Western blot MEK1 phosphorylation, Kasumi-1; format: cell-based; details: Homo sapiens, Kasumi 1, 2 h, read-out: IC50 P-MEK/Total MEK
# Protocol: Cells were maintained at 37° C. with 5% CO2.
# as §2, §3
# [6] = tested on: P-MEK/Total MEK; experiment: Western blot MEK1 phosphorylation, HL-60; format: cell-based; details: Homo sapiens, HL-60, 2 h, read-out: IC50 P-MEK/Total MEK
# Protocol: as §4, §2, §3
# [7] = tested on: Phospho-Ser3-Cofilin/Total Cofilin; experiment: Western blot cofilin phosphorylation, MOLM-13; format: cell-based; details: MOLM-13 cells; 2 h
# Protocol: as §4, with “MOLM-13” for “HL-60”, “20%” for “10%”
# as §2, with “1 h RT under agitation.” for “1 h at room temperature under agitation.”, “temperature with anti-phospho-Ser3-cofilin (Cell Signaling Technology #3313, 1/1000 dilution)” for “temperature with anti-phospho-Ser218/222-MEK1 (Merck-Millipore 07-461, 1/1000 dilution)”, “antibody or anti-cofilin (Cell Signaling Technology #3312, 1/1000 dilution)” for “antibody or anti-MEK1 (Merck-Millipore 07-641, 1/1000 dilution)”, “10 min at room temperature under agitation” for “10 min RT under agitation”, “cells). IC50 Phospho-Ser3-Cofilin/Total Cofilin is then” for “cells). IC50 P-MEK/Total MEK is then”
# [8] = tested on: Phospho-Ser3-Cofilin/Total Cofilin; experiment: Western blot cofilin phosphorylation, MOLM-14; format: cell-based; details: MOLM-14 cells; 2 h
# Protocol: as §1
# as §2, with “1 h RT under agitation.” for “1 h at room temperature under agitation.”, “temperature with anti-phospho-Ser3-cofilin (Cell Signaling Technology #3313, 1/1000 dilution)” for “temperature with anti-phospho-Ser218/222-MEK1 (Merck-Millipore 07-461, 1/1000 dilution)”, “antibody or anti-cofilin (Cell Signaling Technology #3312, 1/1000 dilution)” for “antibody or anti-MEK1 (Merck-Millipore 07-641, 1/1000 dilution)”, “10 min at room temperature under agitation” for “10 min RT under agitation”, “cells). IC50 Phospho-Ser3-Cofilin/Total Cofilin is then” for “cells). IC50 P-MEK/Total MEK is then”
# [9] = target: B-Raf(h) (Homo sapiens, UniProt P15056); experiment: B-Raf kinase assay (Eurofins Panlabs, radiometric); format: biochemical; set-up: purchased Eurofins Panlabs Inc. (contract assay service); details: Table 8; for IC50: 120 μM ATP, read-out: IC50 B-Raf; for Selectivity ratio: IC50 B-Raf (nM) divided by IC50 LIMK1 (nM)
# B-Raf(h), sequence (P15056 whole entry): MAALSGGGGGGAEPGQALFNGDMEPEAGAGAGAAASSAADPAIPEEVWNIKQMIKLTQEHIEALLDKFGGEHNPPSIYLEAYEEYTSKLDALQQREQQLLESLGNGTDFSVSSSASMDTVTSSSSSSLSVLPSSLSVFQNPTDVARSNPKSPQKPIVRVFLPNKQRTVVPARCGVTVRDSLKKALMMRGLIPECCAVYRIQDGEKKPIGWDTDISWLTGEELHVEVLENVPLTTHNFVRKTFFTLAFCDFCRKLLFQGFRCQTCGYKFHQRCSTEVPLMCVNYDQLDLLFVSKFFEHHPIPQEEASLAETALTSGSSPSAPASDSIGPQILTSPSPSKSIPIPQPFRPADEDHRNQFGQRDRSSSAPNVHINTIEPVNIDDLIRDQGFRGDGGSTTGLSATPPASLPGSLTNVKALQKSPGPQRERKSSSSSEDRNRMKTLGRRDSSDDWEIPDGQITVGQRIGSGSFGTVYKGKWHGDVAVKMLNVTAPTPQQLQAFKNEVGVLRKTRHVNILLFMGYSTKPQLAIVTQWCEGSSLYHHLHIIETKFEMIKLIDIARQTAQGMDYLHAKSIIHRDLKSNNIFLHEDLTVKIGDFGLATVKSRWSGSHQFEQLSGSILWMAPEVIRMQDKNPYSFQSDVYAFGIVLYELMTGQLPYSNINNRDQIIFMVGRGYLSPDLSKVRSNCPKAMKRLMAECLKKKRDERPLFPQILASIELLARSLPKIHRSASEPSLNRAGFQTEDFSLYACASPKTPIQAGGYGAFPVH
# Protocol: IC50 B-Raf is then determined.
# Selectivity ratios are calculated by dividing the IC50 B-Raf (nM) by the IC50 LIMK1 (nM).
# [10] = target: LIMK1(h) (Homo sapiens, UniProt P53667); experiment: LIMK1 kinase assay (Eurofins Panlabs, radiometric); format: biochemical; set-up: purchased Eurofins Panlabs Inc. (contract assay service); details: 15 μM ATP, read-out: IC50 LIMK1
# LIMK1(h), sequence (P53667 whole entry): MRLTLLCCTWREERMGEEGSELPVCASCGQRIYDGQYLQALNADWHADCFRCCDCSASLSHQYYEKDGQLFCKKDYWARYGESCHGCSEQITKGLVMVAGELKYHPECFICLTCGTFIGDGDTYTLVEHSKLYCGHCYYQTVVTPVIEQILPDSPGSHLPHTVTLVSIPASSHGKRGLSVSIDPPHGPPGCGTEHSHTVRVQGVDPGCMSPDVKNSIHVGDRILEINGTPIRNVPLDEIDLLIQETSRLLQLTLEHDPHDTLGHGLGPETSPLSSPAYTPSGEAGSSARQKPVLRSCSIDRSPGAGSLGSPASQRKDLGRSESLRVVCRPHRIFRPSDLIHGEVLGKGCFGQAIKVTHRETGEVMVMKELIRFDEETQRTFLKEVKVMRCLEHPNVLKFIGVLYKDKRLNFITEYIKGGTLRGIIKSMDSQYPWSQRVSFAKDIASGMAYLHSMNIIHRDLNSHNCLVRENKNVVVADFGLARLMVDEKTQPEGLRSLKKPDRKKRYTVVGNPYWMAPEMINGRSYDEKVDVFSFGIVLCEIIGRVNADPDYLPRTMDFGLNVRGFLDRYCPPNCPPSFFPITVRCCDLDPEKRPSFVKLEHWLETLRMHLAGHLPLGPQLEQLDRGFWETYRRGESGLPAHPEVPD
# Protocol: Compounds were tested in a LIMK1 assay performed by Eurofins Panlabs Inc. LIMK1 (h) is incubated with 8 mM MOPS pH 7.0, 0.2 mM EDTA, 0.6 mg/mL cofilin, 10 mM Magnesium acetate and [gamma-33P]-ATP. The reaction is initiated by the addition of the Mg/ATP mix. After incubation for 40 min at room temperature, the reaction is stopped by the addition of phosphoric acid to a concentration of 0.5%. […] IC50 LIMK1 is then determined.
# [11] = tested on: Phospho-Ser3-Cofilin/Total Cofilin; experiment: Western blot of cellular cofilin phosphorylation status, MV4-11 (II.4); format: cell-based; details: Homo sapiens; MV4-11 cells; 2 h treatment
# Protocol: as §5, with “MV4-11” for “Kasumi-1”, “10%” for “20%”, “P06-07100) and 2 mM Glutamine (Sigma-Aldrich 59202C).” for “P06-07100).”
# In a 6 wells plate (Falcon 353046), 2·10^6 cells in 1.5 mL medium are treated for 2 h with compounds. Cells are then collected and cell lysis is performed at 4° C. using RIPA buffer supplemented with protease inhibitors cocktail (Sigma-Aldrich P8340) and phosphatase inhibitors cocktail (Sigma-Aldrich P5726). Following centrifugation 30 min 15000 g 4° C., supernatants are mixed with Laemmli buffer and denaturation is performed by heating 5 min 95° C. 10 μL of samples are subjected to electrophoresis on 15% SDS-PAGE. After electro-transfer (Mini Transblot, Bio-Rad), the PVDF membrane (Merck-Millipore Immobilon P IPVH00010) is blocked with Tris Buffered Saline, pH 7.4 (TBS) with 0.1% Tween 20 and 5% BSA for 1 h RT under agitation. The membrane was rinsed 3 times 10 min RT under agitation with TBS, 0.1% Tween-20 (TBST) and then 1 h RT with anti-phospho-Ser3-cofilin (Cell Signaling Technology #3313, 1/1000 dilution) antibody or anti-cofilin (Cell Signaling Technology #3312, 1/1000 dilution) diluted in TBS, 0.1% Tween 20 and 1% BSA. The membrane is then rinsed 3 times 10 min RT under agitation in TBST and incubated for 1 hour with anti-rabbit secondary antibody, horseradish peroxidase conjugated (Jackson Immunoresearch #711-036-152) under agitation at room temperature. After three washes 10 min RT in TBST, the detection of total or phosphorylated cofilin was performed using chemiluminescence kit ECL™ Plus (GE Healthcare RPN2132). For each concentration of compound, ratio between phosphorylated cofilin and total cofilin is determined. This ratio is then expressed as percentage of control ratio (i.e ratio from DMSO treated cells). IC50 is then determined.
IC50 [9] [µM],Selectivity ratio [9],IC50 ([10]; Table 2) [µM],IC50 [11] [µM],Compound,further results
,,,,CNC(=O)Cc1nc(-c2cccc(NS(=O)(=O)c3c(F)cccc3F)c2F)c(-c2ccnc(Nc3ccccc3)n2)s1 [9 (Na)],IC50 [1]: 0.2 to 1 µM; IC50 [2]: 0.2 to 1 µM; IC50 [3]: > 1 µM; IC50 [4]: 0.2 to 1 µM; IC50 [5]: > 1 µM; IC50 [6]: > 1 µM; IC50 [7]: 0.2 to 1 µM; IC50 [8]: < 0.2 µM
0.01 to 0.1,4,< 0.01,> 1,"CCOC(=O)Cc1nc(-c2cccc(NS(=O)(=O)c3c(F)cccc3F)c2F)c(-c2ccnc(Nc3ccccc3)n2)s1 [Compound 2, ethyl 2-(4-(3-(2,6-difluorophenylsulfonamido)-2-fluorophenyl)-5-(2-(phenylamino)pyrimidin-4-yl)thiazol-2-yl)acetate]",
,,0.1 to 0.5,< 0.2,"CCCS(=O)(=O)Nc1cccc(-c2nc(C(C)(C)C)sc2-c2ccnc(Nc3ccccc3)n2)c1F [Compound 3, N-(3-(2-(tert-butyl)-5-(2-(phenylamino)pyrimidin-4-yl)thiazol-4-yl)-2-fluorophenyl)propane-1-sulfonamide]",
,,0.1 to 0.5,0.2 to 1,"CC(C)(C)c1nc(-c2cccc(NS(=O)(=O)CCC(F)(F)F)c2F)c(-c2ccnc(Nc3ccccc3)n2)s1 [Compound 4, N-(3-(2-(tert-butyl)-5-(2-(phenylamino)pyrimidin-4-yl)thiazol-4-yl)-2-fluorophenyl)-3,3,3-trifluoropropane-1-sulfonamide]",
0.5 to 5,11,0.1 to 0.5,,"CC(C)(C)c1nc(-c2cccc(NC(=O)C(=O)c3c(F)cccc3F)c2F)c(-c2ccnc(Nc3ccccc3)n2)s1 [Compound 5, N-(3-(2-(tert-butyl)-5-(2-(phenylamino)pyrimidin-4-yl)thiazol-4-yl)-2-fluorophenyl)-2-(2,6-difluorophenyl)-2-oxoacetamide]",IC50 ([10]; Table 8): 0.5 to 5 µM
0.5 to 5,16,0.5 to 5,> 1,"CC(C)(C)OC(=O)Nc1cccc(-c2nc(C(C)(C)C)sc2-c2ccnc(Nc3ccccc3)n2)c1F [Compound 6, tert-butyl (3-(2-(tert-butyl)-5-(2-(phenylamino)pyrimidin-4-yl)thiazol-4-yl)-2-fluorophenyl)carbamate]",
,,0.5 to 5,0.2 to 1,"CC(C)(C)c1nc(-c2cccc(NS(=O)(=O)c3c(F)cccc3F)c2F)c(-c2ncnc3[nH]ccc23)s1 [Compound 7, N-(3-(2-(tert-butyl)-5-(7H-pyrrolo[2,3-d]pyrimidin-4-yl)thiazol-4-yl)-2-fluorophenyl)-2,6-difluorobenzenesulfonamide]",
,,0.1 to 0.5,,"CC(C)(C)c1nc(-c2cccc(NS(=O)(=O)C3CC3)c2F)c(-c2ccnc(Nc3ccccc3)n2)s1 [Compound 10, N-(3-(2-(tert-butyl)-5-(2-(phenylamino)pyrimidin-4-yl)thiazol-4-yl)-2-fluorophenyl)cyclopropanesulfonamide]",
